Assay results from US11420975B2, “Substituted imidazo[1,5-a]pyrazines as Bruton's tyrosine kinase inhibitors” (TRANSTHERA SCIENCES (NANJING), INC., priority 2018, dated 2022).
Where “and” joins values, the source holds several entries; their conditions need not be identical. Identical values can stand only once.

How the values were obtained:
[1] = test system: TMD-8; experiment: In vitro tumor cell proliferation inhibition, TMD-8 (CellTiter-Glo); assay type: cell-based; conditions: Homo sapiens, TMD8; TMD-8 cells, 72 h
Method: (1) Method • The tumor cell line (TMD-8/OCY-LY10) was suspended in RPMI1640+FBS10% and cultured in an incubator (37° C., 5% CO2). Cells were passaged periodically, and cells at logarithmic growth phase were collected for plating. • Cell staining was performed with trypan blue and viable cells were counted. • Cell concentration was adjusted to 7000 cells/well with medium. • 90 μL of cell suspension was added to a 96-well plate and cell-free culture medium was added to the blank control wells. • Cells in the 96-well plate were incubated overnight in an incubator (37° C., 5% CO2, 100% relative humidity). • Preparation of 400× compound storage plates: test compounds and reference drug were each dissolved in DMSO and 3× diluted from the highest concentration (400 μM) to the lowest concentration (0.61 μM). • Preparation of 10× compound working solutions: 78 μL of cell culture medium was added to a V-bottom 96-well plate, and 2 μL of the compound was pipetted from the 400× compound storage plate into the 96-well plate. Vehicle control wells and blank control wells were added with 2 μL of DMSO. […] Inhibition rates of compounds at different concentrations were calculated in Excel, followed by plotting the inhibition curves and calculating IC50 values with GraphPad Prism.

[2] = biological target: BTK(wt) (Homo sapiens (Human), UniProt Q06187); experiment: pBTK inhibition in HEK293 cells transfected with BTK(wt) (ELISA); assay type: cell-based; conditions: 2 h
Method: (§1) For positive (high signal) controls, cells were treated with 0.5% DMSO alone. […] The absorbance was read at 450 nm. • Based on the absorbance readings of the positive and negative control values, the % inhibition value was calculated according to the following formula: (% INH=((positive control−sample)/(positive control−negative control))×100. • The Z′ value was calculated based on the following formula: 1−((3×standard deviation of positive+3×standard deviation of negative)/(mean positive−mean negative)). • The […] was plotted using GraphPad Prism. • IC50 values were determined after sigmoidal dose-response curve fitting.

[3] = biological target: BTK(C481S) (Homo sapiens (Human), UniProt Q06187, C481S); experiment: pBTK inhibition in HEK293 cells transfected with BTK(C481S) (ELISA); assay type: cell-based; conditions: 2 h
Method: as §1

[4] = test system: OCI-LY10 xenograft tumor; experiment: OCI-LY10 xenograft tumor model; assay type: in vivo; conditions: for TGI: bid
Method: (§2) CB17/SCID female mice with serious immune deficiency were purchased from Beijing Vital River Laboratory Animal Technology Co., Ltd. and bred in SPF animal houses. Human OCI-LY10 cells (Shanghai Junrui-UFBN0102) were cultured in an RPMI 1640 culture medium containing 10% fetal bovine serum, 100 U/mL penicillin and 100 μg/mL streptomycin through monolayer culture in vitro in an incubator (37° C., 5% C02). Routine treatment was performed twice a week for passaging. At a cell saturation of 80%-90% and a required number, the cells were harvested and counted. 0.2 mL (1×10^7) of OCI-LY10 cells (together with matrigel at a volume ratio of 1:1) were subcutaneously inoculated into the right back of each mouse, and the tumor size could be measured about one week after inoculation. Tumor size was measured using a vernier caliper and tumor volume was calculated using the following formula: tumor volume=(length×width^2)/2.

[5] = test system: TMD-8 xenograft tumor; experiment: TMD-8 xenograft tumor model; assay type: in vivo; conditions: for TGI: bid
Method: as §2, with “TMD-8” for “OCI-LY10”, “Junrui-UFBN1682)” for “Junrui-UFBN0102)”

Chain of BTK(C481S) (Q06187 whole entry C481S): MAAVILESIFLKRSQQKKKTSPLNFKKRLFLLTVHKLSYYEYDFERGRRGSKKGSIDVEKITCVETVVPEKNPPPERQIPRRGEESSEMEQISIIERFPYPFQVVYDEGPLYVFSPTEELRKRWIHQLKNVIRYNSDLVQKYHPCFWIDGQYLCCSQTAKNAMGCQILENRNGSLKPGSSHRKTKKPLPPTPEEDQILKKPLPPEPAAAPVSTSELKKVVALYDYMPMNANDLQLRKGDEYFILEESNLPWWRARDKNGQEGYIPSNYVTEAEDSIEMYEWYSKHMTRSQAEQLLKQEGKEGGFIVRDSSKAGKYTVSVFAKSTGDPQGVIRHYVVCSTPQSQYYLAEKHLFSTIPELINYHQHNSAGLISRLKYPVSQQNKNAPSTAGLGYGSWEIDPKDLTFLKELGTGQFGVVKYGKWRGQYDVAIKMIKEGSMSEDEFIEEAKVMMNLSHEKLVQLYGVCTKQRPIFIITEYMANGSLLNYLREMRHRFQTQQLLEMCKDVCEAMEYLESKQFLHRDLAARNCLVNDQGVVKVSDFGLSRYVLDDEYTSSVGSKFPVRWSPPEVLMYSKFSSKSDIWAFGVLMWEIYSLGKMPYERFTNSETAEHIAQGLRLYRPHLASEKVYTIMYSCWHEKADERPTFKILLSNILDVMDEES
Chain of BTK(wt) (Q06187 whole entry): as the sequence (Q06187 whole entry C481S) above, with S481C counted along it

## Nc1nccn2c(C34CCC(NC(=O)CN5CCOCC5)(CC3)C4)nc(-c3ccc(C(=O)Nc4cc(C(F)(F)F)ccn4)cc3)c12 [Compound A-10-10, 4-(8-amino-3-(4-(2-morpholinoacetamido)bicyclo[2.2.1]heptan-1-yl)imidazo[1,5-a]pyrazin-1-yl)-N-(4-(trifluoromethyl)pyridin-2-yl)benzamide]
[1]
  IC50: 2.9 nM
[2]
  IC50: 77 nM
[3]
  IC50: 66 nM and 63 nM
[4]; 25 mg/kg group, after 28 days of administration
  xenograft tumors disappearance: disappeared completely
[4]; 50 mg/kg group, after 21 days of administration
  xenograft tumors disappearance: completely disappeared
[4]; all dosages
  tolerance of tumor-bearing mice: good tolerance
[4]; all treatment groups
  effect on body weight of tumor-bearing mice: no significant weight loss
[4]; intragastric 25 mg/kg
  TGI: 110%
[4]; intragastric 50 mg/kg
  TGI: 110%
[5]; 50 mg/kg group, after 27 days of administration
  xenograft tumors disappeared (fraction): 5/8
[5]; all dosages
  tolerance of tumor-bearing mice: good tolerance
[5]; all treatment groups
  effect on body weight of tumor-bearing mice: no significant weight loss
[5]; intragastric 25 mg/kg
  TGI: 94%
[5]; intragastric 50 mg/kg
  TGI: 104%
